Assay results taken from US6730295B2, “Anionic polymers as species specific antibacterial agents” (Genzyme Corporation, priority 2000, dated 2004).

What was measured:
Experiment in all cases: MIC assay (NCCLS broth microdilution)
Type in all cases: cell-based
S. pneumoniae = details: species 4 = S. pneumoniae; 18-24 hr at 35° C., Mueller-Hinton broth
Description: (§1) The minimum inhibitory concentration (MIC) assay is performed according to the Performance Standards for Antimicrobial Susceptibility Testing, 1998, vol. M 100-S8, Eighth Informational Supplement, NCCLS, 940 West Valley Road, Suite 1400, Wayne, Pa. 19087.
(§2) Polymers to be tested were dissolved in 0.85% saline to a final concentration of either 830 or 1000 μg/ml, the pH was adjusted to 7.0 and the solution was filter-sterilized through a 0.22 μm filter. Two-fold serial dilutions of polymer were prepared in Mueller-Hinton broth with cations aliquotted into 96-well microtiter plates. The plates were then inoculated with […] of target organism, and incubated 18-24 hr at 35° C. The optical density (OD) was then read at 590 nm, and microorganism growth was scored (OD >0.1 is considered to be growth; OD <0.1 is considered growth inhibition). The MIC value was defined as the lowest concentration of compound which inhibits growth.

S. sanguis = details: species 3 = S. sanguis; 18-24 hr at 35° C., Mueller-Hinton broth
Description: as §1, §2

E. coli = details: species 1 = E. coli; 18-24 hr at 35° C., Mueller-Hinton broth
Description: as §1, §2

Branhamella catarrhalis = details: species 6 = Branhamella catarrhalis; 18-24 hr at 35° C., Mueller-Hinton broth
Description: as §1, §2

E. Faecium = details: species 2 = E. Faecium; 18-24 hr at 35° C., Mueller-Hinton broth
Description: as §1, §2

N. meningitidis = details: species 5 = N. meningitidis; 18-24 hr at 35° C., Mueller-Hinton broth
Description: as §1, §2

## CCCCCCCCCCCCOS(=O)(=O)[O-].[Na+] [sodium dodecyl sulfate]
S. pneumoniae
  minimum inhibitory concentration (MIC): 28
S. sanguis
  minimum inhibitory concentration (MIC): 28
E. coli
  minimum inhibitory concentration (MIC): >83
Branhamella catarrhalis
  minimum inhibitory concentration (MIC): 9
E. Faecium
  minimum inhibitory concentration (MIC): >83
N. meningitidis
  minimum inhibitory concentration (MIC): 28
